{
  "source": "patent US6518315B1",
  "about": "“Medicinal uses of phenylaikanols and derivatives” (The University of Sydney, priority 1997, dated 2003)",
  "key": {"right atrium rat": {"tested_on": "right atrium rat", "test": "Cardiovascular and neuro-effector junction activities: right atrium, rat", "conditions": "3 × 10^−7-3 × 10^−6 M, with propranolol present", "excerpt": "(§1) Therefore, further investigation of the physicochemical properties as well as mechanism(s) of action of these substances, including gingerols, is required in relation to cardiotonicity. The mode of action of gingerols as cardiotonic agents has been […] and it was proposed that they act by direct stimulation of the cardiac SR Ca^2+-ATPase. This may load extra calcium into the intracellular stores in the sarcoplasmic reticulum allowing more calcium to be released on stimulation of the heart resulting in increased cardiac contractility. […] The cardiotonic action of 1-(4-hydroxy-3-methoxyphenyl)dodecan-3-ol [3.93] was confirmed from independent studies, carried out at our request as part of our agreement with Johnson & Johnson Research Ltd (J&J), by Prof. James Angus from the University of Melbourne. […] A tachycardial effect of the substance on guinea pig atria was, however, observed at significant rate, 50-60% of isoprenaline Emax and the response was not α- or β-adrenoceptor mediated.\n(§2) Cardiovascular and Neuro-effector Junction Activities of Gingerol Analogues"}, "[1]": {"tested_on": "capsaicin-sensitive DRG neuronal cells", "test": "[Ca^2+]i transients in DRG neuronal cells in culture", "format": "cell-based, rat", "excerpt": "Effect of Gingerol Analogues Towards Rat Dorsal Root Ganglia\nCapsaicin, the pungent component in peppers of the Capsicum genus, family Solanaceae, has the ability to excite a subset of sensory neurons, which include polymodal nociceptors and warm thermoceptors (Fitzgerald, 1983) by opening non-selective cation channels that are permeable to Na^+, K^+, and Ca^2+ (Bevan and Szolcsanyi, 1990). It has been shown that capsaicin evoked a concentration-dependent rise in [Ca^2+]i in cultured dorsal root ganglion neurons. The duration of the elevation of [Ca^2+]i depended on the concentration of capsaicin (Choleswinski, et al., 1993). In this investigation peak [Ca^2+]i transient measurements are used as a model for testing gingerol analogues.\nDRG from neonatal (3-5 days old) rat or adult Sprague-Dawley rats were incubated in Hanks CMF saline with 0.05% collagenase and 0.25% trypsin for 25 min at 37° C. Individual cells were obtained by trituration with fire polished Pasteur pipettes of diminishing diameters. Neurones were isolated from the cell suspension in 30% Percoll and then plated on collagen coated coverslips or in 24-well plates, then cultured in neurobasal medium with B27 supplement, 50 ng/ml 2.5 S nerve growth factor, 2 mM 1-glutamine and 100 U/ml penicillin/streptomycin. Cultures were maintained at 37° C. with 5% CO2. 30% Percoll increases the percentage of capsaicin-sensitive DRG neurones up to 70%. For peak [Ca^2+]i transients measurements, cells on coverslips were incubated with 5 μM Fura-2 AM for 30 min at 37° C. The coverslips were then mounted on a chamber attached to a fast sample application perfusion system which allows changing solutions in the second range. Recordings were made on the stage of a Nikon Diaphot inverted microscope fitted with a Nikon 40×Fluo (NA 0.85) DL Ph3 or 40×Fluo (NA 1.3) oil objective. [Ca^2+]i was calculated from dual excitation wavelength (340/380 nm) fluorescence measurements following an intracellular calibration procedure by the Grynkiewicz equation, using MCID M2/M4 v.3.0 (Imaging Res. Inc.) software. Cells were continuously perfused with a solution consisting of 140 mM NaCl, 2 mM CaCl2, 5 mM KCl, 20 mM HEPES, 10 mM glucose, pH 7.4. To study KCl evoked depolarisation, 50 mM NaCl was replaced by equimolar KCl. Cytoplasmic localisation of Fura-2 was tested with the Mn^2+ quenching technique (Dedov and Roufogalis, 1998). All experiments were performed at room temperature (20-23° C.).\nTypical changes in [Ca^2+]i upon depolarisation were evoked by 50 mM KCl and by application of 1 μM capsaicin; both were applied for 30 sec. Capsaicin-evoked peak [Ca^2+]i transients are characterised by a fast rise and long-steady state [Ca^2+]i clearance from the cytoplasm. In capsaicin-sensitive cells the half-time of cytoplasmic Ca^2+ clearance was proportional to the amplitudes of peak [Ca^2+]i transients.\nTo examine the effect of gingerol derivatives, one or several compounds in succession at a concentration of 10 μM were applied for 1 min to the DRG neuronal cells followed by washing out for 4 min with physiological solution. To the capsaicin-sensitive cells, 10 μM capsaicin and 50 mM KCl were applied, respectively, to confirm the viability of the cells. In addition, morphological appearances of the cells were also examined at the end of experiment. […]"}, "[2]": {"tested_on": "rabbit platelet-rich plasma", "test": "Antiplatelet aggregation screen with arachidonic acid as substrate", "format": "cell-based"}, "left atrium guinea pig": {"tested_on": "left atrium guinea pig", "test": "Cardiovascular and neuro-effector junction activities: left atrium, guinea pig", "protocol": "In later studies positive inotropic activity was observed as a 50% increase on driven guinea pig left atria at 10 μM.\nNo effect was observed on nerve stimulation in atria.\nas §1, §2"}, "right atrium guinea pig": {"tested_on": "right atrium guinea pig", "test": "Cardiovascular and neuro-effector junction activities: right atrium, guinea pig", "conditions": "10^−7-3 × 10^−5 M; not blocked by praz., prop.", "excerpt": "as §1, §2"}, "rat mesenteric artery": {"tested_on": "rat mesenteric artery", "test": "Vasodilation on rat mesenteric artery", "excerpt": "The proposed mechanism of neuropeptide release by 1-(4-hydroxy-3-methoxyphenyl)dodecan-3-ol, similar to that of capsaicin, was supported by studies in blood vessels. […] This contrasts with capsaicin which has similar activity in Guinea pig atria (force and rate) and relaxing rat mesenteric artery."}, "guinea pig atria": {"tested_on": "guinea pig atria", "test": "Organ bath assay, isolated guinea pig atria (rate and force of contraction)", "protocol": "Male guinea pigs, 3-4 weeks old, were killed by rapid cervical dislocation without induced anaesthesia. Then, the guinea pigs were dissected to isolate the atria which were immediately mounted vertically in an organ bath containing Krebs-Henseleit solution oxygenated with carbogen.\nOne gram tension was applied to the atria and the base line continuously adjusted until it was stable for 20 mins. The rate and force of contraction were recorded using Mac Lab equipment.\nTest substances in DMSO were assayed to a maximum concentration of 50 μM at a final concentration of 2.5% of DMSO."}, "[3]": {"tested_on": "brine shrimp (Artemia salina Leach)", "test": "Brine shrimp assay", "format": "in vivo", "conditions": "for LC50: 24 hours, 2% DMSO", "excerpt": "Toxicity—Brine Shrimp Assay\nThe brine shrimp assay procedure determines LC50 values of active compounds. Activities of a broad range of known active compounds are manifested as toxicity to brine shrimp (Artemia salina Leach). There are many applications of the assay including analysis of toxic substances, anaesthetics, morphine-like substances and cocarcinogenicity of phorbol esters.\nDMSO (dimethyl sulfoxide) was the solvent of choice because of its good solubilising properties and also because the substances used in the ATPase inhibition assays were already prepared with DMSO.\nThe method for testing solvent toxicity used was basically that reported by J L McLaughlin in Methods of Plant Biochemistry (1991), vol. 6 (K Hostettman, ed.), Academic Press, London, 1-32. DMSO solutions of the substances to be tested were added directly to the vials containing the brine shrimp. As the concentration of DMSO is that we wished to use was higher than the recommended 1% v/v testing of the toxicity of the DMSO was therefore necessary. The concentrations of DMSO tested on the shrimp, along with the results from the assay which was done in duplicate are listed below.\nBrine shrimp toxicity was assayed, except for some minor modifications, according to the method of McLaughlin et al as reported in Brine Shrimp: A convenient bioassay for active plant constituents, B N Meyer, N R Ferrigni, J E Putnam, L B Jacobsen, D E Nichols and J L McLaughlin in Planta Medica (1982), 45, 31-34 and Crown gall tumours on potato discs and brine shrimp lethality: Two simple bioassays for higher plant screening and fractionation. J L McLaughlin. Methods of Plant Biochemistry (1991), vol. 6 (K Hostettman, ed.), Academic Press, London, 1-32. Ten shrimp were transferred to each of the vials and the volume adjusted to 4.9 mL. Each dose was performed in triplicate, including the control. In quick succession, the appropriate volume of additional DMSO for each dose, required to achieve a final concentration of 2%, was added before the appropriate volume of test solution. The vials were gently mixed and the time noted. After 24 hours, the number of survivors were counted and % mortality was determined. The test compounds were assayed at concentrations of 100 μM, 25 μM, 5 μM, 1 μM and 0.2 μM (and where appropriate concentrations of 0.04 μM and 0.008 μM).\nThe brine shrimp were able to survive without food in the vials over the 24 hour period and were therefore not fed.\nThe dose-response curves were constructed using the Sigmaplot computer program and the LC50 value was calculated from the intersection point of the curve and the 50% mortality line. The LC50 values were expressed in both μM and μg/mL.\nFor substances with low toxicity, the greater sign “>” indicated the highest concentration at which the assay was carried out as precipitation of the substances occurred above that concentration."}, "[4]": {"tested_on": "brine shrimp (Artemia salina Leach)", "conditions": "in vivo; cited from earlier work"}, "diaphragm rat": {"tested_on": "diaphragm rat", "test": "Cardiovascular and neuro-effector junction activities: diaphragm, rat", "conditions": "10^−5 M", "excerpt": "as §1, §2"}, "vas deferens rat": {"tested_on": "vas deferens rat", "test": "Cardiovascular and neuro-effector junction activities: vas deferens, rat", "conditions": "10^−4 M", "excerpt": "as §1, §2"}, "cardiac Purkinje fibres": {"tested_on": "cardiac Purkinje fibres", "test": "Cardiac electrophysiology on Purkinje fibres", "parameters": "species or system dog", "conditions": "up to 10 μM", "protocol": "Cardiac Electrophysiological Activities of Gingerol and its Analogue\nThe basic cardiac electrophysiological properties were assessed using cardiac Purkinje fibres obtained from adult mongrel dogs.\nElectrophysiology was carried out on dog heart purkinje fibre to test for potential arrhythmia. […] At high concentration (50 μM), however, [8]-gingerol reduced approximate 80% and 50% of action potential duration at 50% and 90% repolarisations respectively. Whereas the analogue reduced 75% and 30% respectively."}, "left atrium rat": {"tested_on": "left atrium rat", "test": "Cardiovascular and neuro-effector junction activities: left atrium, rat", "conditions": "10^−7-3 × 10^−5 M", "excerpt": "as §1, §2"}},
  "note": "Where two headings read alike, the source gives them in different places.",
  "data": [
    {"molecule": "CCCCCCCCCC(O)CCc1ccc(O)c(OC)c1", "note": "(stereo not shown) [1-(4-hydroxy-3-methoxyphenyl)dodecan-3-ol]", "values": [
      {"measurement": "effect on rate, right atrium rat", "setting": "right atrium rat", "result": "tachycardia"},
      {"measurement": "evoked [Ca^2+]i transients in Ca^2+-free medium or with ruthenium red", "setting": "[1]; Ca^2+-free medium or ruthenium red (1 μM)", "result": "abolished or greatly diminished"},
      {"measurement": "platelet function via adenosine diphosphate or thromboxane A mechanisms", "setting": "[2]", "result": "did not affect"},
      {"measurement": "antiplatelet aggregation potency relative to indomethacin", "setting": "[2]; arachidonic acid as substrate, listed as 3-hydroxy-1-(4-hydroxy-3-methoxyphenyl)dodecane", "result": "three time more potent than the indomethacin reference compound"},
      {"measurement": "arrhythmia on guinea pig driven left atria", "setting": "left atrium guinea pig; 1 μM", "result": "followed by arrhythmia"},
      {"measurement": "inotropic effect, % isopren. max., left atrium guinea pig", "setting": "left atrium guinea pig; 10^−6-3 × 10^−5 M", "result": "˜20%"},
      {"measurement": "inotropism, left atrium guinea pig", "setting": "left atrium guinea pig; 10^−6-3 × 10^−5 M (not in rat)", "result": "inotropic"},
      {"measurement": "effect on rate, right atrium guinea pig", "setting": "right atrium guinea pig", "result": "tachycardia"},
      {"measurement": "potency (EC50) for relaxation of mesenteric artery relative to inotropic effect in guinea pig atrium", "setting": "rat mesenteric artery", "result": 100, "unit": "fold"},
      {"measurement": "relaxing vasopressin-contracted rat mesenteric small arteries", "setting": "rat mesenteric artery; 10^−8 to 10^−6 M, 200-300 μm diameter", "result": "very potent"},
      {"measurement": "potency of one enantiomer relative to the other in increasing force of contraction in guinea pig atria", "setting": "guinea pig atria", "result": 100, "unit": "fold"},
      {"measurement": "FORCE OF CONTRACT^n, ↑ increase", "setting": "guinea pig atria; @ 10 (μM)", "result": "↑108% @ 10"},
      {"measurement": "toxicity towards brine shrimp, in words", "setting": "[3]; in vivo", "result": "low toxicity"}
    ]},
    {"molecule": "COc1cc([C@@H]2c3cc4c(cc3[C@H](O)[C@H]3COC(=O)[C@H]23)OCO4)cc(OC)c1OC", "note": "[podophyllotoxin, reference compound]", "values": [
      {"measurement": "LC50 determined by Meyer et al. (1982)", "setting": "[4]", "result": "(2.4) μg/ml"},
      {"measurement": "LC50", "setting": "[3]", "result": 1.6, "unit": "µg/mL"},
      {"measurement": "LC50", "setting": "[3]; read-out: LC50", "result": 3.8, "unit": "µM"}
    ]},
    {"molecule": "CCCCCCCC(O)CC(=O)c1ccc(O)c(OC)c1", "note": "(stereo not shown) [3-hydroxy-1-(4-hydroxy-3-methoxyphenyl)decan-1-one]", "values": [
      {"measurement": "effect on diaphragm rat", "setting": "diaphragm rat", "result": "no effect"},
      {"measurement": "Peak [Ca^2+]i (Average ± SD)", "setting": "[1]; 10 μM applied for 1 min, 2 mM Ca^2+", "result": 0, "unit": "nM"},
      {"measurement": "effect on vas deferens rat", "setting": "vas deferens rat", "result": "no effect"},
      {"measurement": "effect on isoprenaline response, left atrium guinea pig", "setting": "left atrium guinea pig; up to 30 μM", "result": "no effect"},
      {"measurement": "FORCE OF CONTRACT^n (inotropic activity), result in words", "setting": "guinea pig atria; assayed to a maximum of 50 μM", "result": "negative inotropic activity"},
      {"measurement": "HEART RATE (chronotropic activity), result in words", "setting": "guinea pig atria; assayed to a maximum of 50 μM", "result": "negative chronotropic activity"},
      {"measurement": "effect on rate of depolarization, amplitude and duration of action potential (50% and 90%)", "setting": "cardiac Purkinje fibres; listed as 3-hydroxy-1-(4-hydroxy-3-methoxyphenyl)decanone", "result": "only a small effect"},
      {"measurement": "effect on rate of depolarization, amplitude and duration of action potential (50% and 90%)", "setting": "cardiac Purkinje fibres; listed as 3.92", "result": "insignificant effect"},
      {"measurement": "effect on left atrium rat", "setting": "left atrium rat", "result": "no change"}
    ]}
  ]
}
